This note sets out measurements from PubChem BioAssay AID276 (DTP/NCI, 2004).

Molecules are shown by their SMILES. “And” between values parts separate entries of the source, which are not always exact repeats. Equal entries are not always repeated. Inconclusive results and toxic doses are left out.

The subject of the experiment is B6C3F1 mice, Lewis lung carcinoma iv, survival T/C. In words: NCI In Vivo Anticancer Drug Screen. Data for tumor model Lewis Lung Carcinoma (intravenous) in B6C3F1 mice. Conditions: endpoint: median survival time, schedule: Q01DX009 (ip), higher = longer survival. As to the method: The antitumor activity of compounds was measured in mice bearing transplantable tumors. Survival or tumor size were measured and the results are expressed as the measurement made in the treated group (T) divided by the measurement made in the vehicle treated control group (C). The tumor model used in this assay is Lewis Lung Carcinoma (intravenous) in B6C3F1 mice

The mark [1] stands for this setting: dose: 25.0 mg/kg/injection, vehicle: saline.
Where [2] appears, read: dose: 6.25 mg/kg/injection, vehicle: saline with Tween-80.
[3] abbreviates: dose: 12.5 mg/kg/injection, vehicle: saline with Tween-80.
Where [4] appears, read: dose: 25.0 mg/kg/injection, vehicle: saline with Tween-80.
[5] abbreviates: dose: 50.0 mg/kg/injection, vehicle: saline with Tween-80.
Where [6] appears, read: dose: 100.0 mg/kg/injection, vehicle: saline with Tween-80.
[7] abbreviates: dose: 200.0 mg/kg/injection, vehicle: saline with Tween-80.
[8] abbreviates: dose: 3.0 mg/kg/injection, vehicle: saline.

Regarding `O=NN(CCCl)C(=O)NC1CCCCC1`, the T/C reads like this: (dose: 1.0 mg/kg/injection, vehicle: Klucel (hydroxypropylcellulose) (HPC)) 98 % of control; (dose: 2.0 mg/kg/injection, vehicle: Klucel (hydroxypropylcellulose) (HPC)) 112 % of control and 120 % of control; (dose: 2.0 mg/kg/injection, vehicle: other) 108 % of control; (dose: 4.0 mg/kg/injection, vehicle: other) 100 % of control; (dose: 8.0 mg/kg/injection, vehicle: Klucel (hydroxypropylcellulose) (HPC)) 295 % of control and 314 % of control; (dose: 8.0 mg/kg/injection, vehicle: other) 100 % of control. Besides, the T/C reads like this: (dose: 16.0 mg/kg/injection, vehicle: other) 119 % of control; (dose: 32.0 mg/kg/injection, vehicle: other) 166 % of control.

Take `C=C(C(=O)O)C(N)C(=O)O` (stereo not drawn): the T/C under setting [1] is 95 % of control; the T/C (dose: 50.0 mg/kg/injection, vehicle: saline) was 102 % of control; the T/C (dose: 100.0 mg/kg/injection, vehicle: saline) was 100 % of control; the T/C (dose: 200.0 mg/kg/injection, vehicle: saline) was 117 % of control.

As to `c1ccc2c(c1)-c1ccccc1C1NC21` (stereo not drawn), the T/C by setting is: under setting [2], 100 % of control; under setting [3], 106 % of control.

As for `O=C(O)CCCCCCCC(=O)O`, the T/C by setting is: (dose: 12.5 mg/kg/injection, vehicle: distilled water + Tween-80) 100 % of control; (dose: 25.0 mg/kg/injection, vehicle: distilled water + Tween-80) 99 % of control; (dose: 50.0 mg/kg/injection, vehicle: distilled water + Tween-80) 100 % of control; (dose: 100.0 mg/kg/injection, vehicle: distilled water + Tween-80) 98 % of control.

Regarding `CCC1CCCCN1C(=S)N/N=C(\C)c1ccccn1` (stereo not drawn), the T/C under setting [2] was 101 % of control, the T/C under setting [3] was 115 % of control and the T/C under setting [4] was 104 % of control.

For the compound `CO[C@@]12[C@H](COC(N)=O)C3=C(C(=O)C(C)=C(N)C3=O)N1C[C@@H]1N[C@@H]12`, the T/C reads like this: (dose: 0.12 mg/kg/injection, vehicle: saline) 101 % of control; (dose: 0.25 mg/kg/injection, vehicle: saline) 103 % of control and 109 % of control; (dose: 0.5 mg/kg/injection, vehicle: saline) 118 % of control; (dose: 1.0 mg/kg/injection, vehicle: saline) 107 % of control.

As for `Cc1oc2c(C)c3oc(=O)cc(C)c3cc2c1CCl`, the T/C is 103 % of control under setting [3] and 101 % of control under setting [4].

In the case of `BrC[P+](CBr)(CBr)CBr`, the T/C under setting [3] is 93 % of control; the T/C under setting [4] is 102 % of control; the T/C under setting [5] is 97 % of control; the T/C under setting [6] is 97 % of control; the T/C under setting [7] is 89 % of control; the T/C (dose: 400.0 mg/kg/injection, vehicle: saline with Tween-80) is 95 % of control.

With `COc1c(C)c2c(c(O)c1C/C=C(\C)CCC(=O)O)C(=O)OC2`, the T/C by setting is: under setting [5], 91 % of control; under setting [6], 91 % of control; under setting [7], 98 % of control.

In the case of `C[C@H](N)C(=O)N[C@@H]1[C@H]2C(=C(O)C[C@@H](O)[C@@H]2O)C(=O)O[C@@H]1C`, the T/C is 102 % of control and 106 % of control (dose: 75.0 mg/kg/injection, vehicle: saline); 105 % of control and 106 % of control (dose: 150.0 mg/kg/injection, vehicle: saline); 107 % of control and 110 % of control (dose: 300.0 mg/kg/injection, vehicle: saline); 114 % of control and 120 % of control (dose: 600.0 mg/kg/injection, vehicle: saline); 117 % of control (dose: 1200.0 mg/kg/injection, vehicle: saline).

Turning to `C=CC(C)(C)n1cc(C2=C(O)C(=O)C(c3cn(C(C)(C)C=C)c4ccccc34)=C(O)C2=O)c2ccccc21`, the T/C is, setting by setting: (dose: 1.25 mg/kg/injection, vehicle: Klucel (hydroxypropylcellulose) (HPC)) 105 % of control; (dose: 2.5 mg/kg/injection, vehicle: Klucel (hydroxypropylcellulose) (HPC)) 110 % of control; (dose: 5.0 mg/kg/injection, vehicle: Klucel (hydroxypropylcellulose) (HPC)) 106 % of control; (dose: 10.0 mg/kg/injection, vehicle: Klucel (hydroxypropylcellulose) (HPC)) 100 % of control; (dose: 20.0 mg/kg/injection, vehicle: Klucel (hydroxypropylcellulose) (HPC)) 114 % of control; (dose: 40.0 mg/kg/injection, vehicle: Klucel (hydroxypropylcellulose) (HPC)) 119 % of control.

For the compound `O=NN(CCF)C(=O)NC1C(O)CCCC1O` (stereo not drawn), the T/C reads like this: (dose: 2.5 mg/kg/injection, vehicle: saline) 116 % of control; (dose: 10.0 mg/kg/injection, vehicle: saline) 312 % of control; (dose: 20.0 mg/kg/injection, vehicle: saline) 104 % of control.

For `CC1=CC2C(O)(CC(CO)=CC3C4C(C)(C)C4(OC(=O)c4ccccc4)C(OC(=O)c4ccccc4)C(C)C32O)C1=O` (stereo not drawn), the T/C is, setting by setting: (dose: 0.12 mg/kg/injection, vehicle: saline with Tween-80) 103 % of control; (dose: 0.25 mg/kg/injection, vehicle: saline with Tween-80) 107 % of control; (dose: 0.5 mg/kg/injection, vehicle: saline with Tween-80) 95 % of control; (dose: 1.0 mg/kg/injection, vehicle: saline with Tween-80) 108 % of control; (dose: 2.0 mg/kg/injection, vehicle: saline with Tween-80) 99 % of control.

Regarding `CN(C)CCN1C(=O)c2cccc3cc([N+](=O)[O-])cc(c23)C1=O`, the T/C (dose: 0.75 mg/kg/injection, vehicle: saline with Tween-80) is 94 % of control; the T/C (dose: 1.5 mg/kg/injection, vehicle: saline with Tween-80) was 93 % of control; the T/C (dose: 3.0 mg/kg/injection, vehicle: saline with Tween-80) is 101 % of control; the T/C (dose: 6.0 mg/kg/injection, vehicle: saline with Tween-80) was 95 % of control.

For the compound `[Cl][Pt][Cl].[NH-]C(CO)C(=O)O` (stereo not drawn), the T/C (dose: 6.25 mg/kg/injection, vehicle: water) is 101 % of control; the T/C (dose: 12.5 mg/kg/injection, vehicle: water) was 111 % of control; the T/C (dose: 25.0 mg/kg/injection, vehicle: water) was 105 % of control; the T/C (dose: 50.0 mg/kg/injection, vehicle: water) is 110 % of control.

With `CC12CC(C(=O)O)C3(O)CC(C)(C1)CC(C)(C2)C3` (stereo not drawn) (tested in a mixture with another compound), the T/C was 124 % of control (dose: 100.0 mg/kg/injection, vehicle: Klucel (hydroxypropylcellulose) (HPC)); 114 % of control (dose: 200.0 mg/kg/injection, vehicle: Klucel (hydroxypropylcellulose) (HPC)); 98 % of control (dose: 400.0 mg/kg/injection, vehicle: Klucel (hydroxypropylcellulose) (HPC)).

Take `O=C(C1CO1)C(Cl)(Cl)Cl` (stereo not drawn): the T/C by setting is: (dose: 1.5 mg/kg/injection, vehicle: saline) 95 % of control; under setting [8], 92 % of control; (dose: 6.0 mg/kg/injection, vehicle: saline) 97 % of control; (dose: 12.0 mg/kg/injection, vehicle: saline) 95 % of control; under setting [4], 108 % of control.

On to `CN(N=O)C(N)=O`, for which the T/C is 123 % of control under setting [8] and 107 % of control under setting [1].
